The values below come from ChEMBL document CHEMBL3991601, “The target landscape of clinical kinase drugs” (Science, 2017).

By Kd is commonly meant the equilibrium constant for the complex coming apart.

Active and inactive are the calls of the source.

The target in test [1] is Epidermal growth factor receptor (Homo sapiens, UniProt P00533).
Test [2] concerns the target T1, Long-chain-fatty-acid--CoA ligase 5 (Homo sapiens, UniProt Q9ULC5).
T1 sequence (Q9ULC5 whole entry): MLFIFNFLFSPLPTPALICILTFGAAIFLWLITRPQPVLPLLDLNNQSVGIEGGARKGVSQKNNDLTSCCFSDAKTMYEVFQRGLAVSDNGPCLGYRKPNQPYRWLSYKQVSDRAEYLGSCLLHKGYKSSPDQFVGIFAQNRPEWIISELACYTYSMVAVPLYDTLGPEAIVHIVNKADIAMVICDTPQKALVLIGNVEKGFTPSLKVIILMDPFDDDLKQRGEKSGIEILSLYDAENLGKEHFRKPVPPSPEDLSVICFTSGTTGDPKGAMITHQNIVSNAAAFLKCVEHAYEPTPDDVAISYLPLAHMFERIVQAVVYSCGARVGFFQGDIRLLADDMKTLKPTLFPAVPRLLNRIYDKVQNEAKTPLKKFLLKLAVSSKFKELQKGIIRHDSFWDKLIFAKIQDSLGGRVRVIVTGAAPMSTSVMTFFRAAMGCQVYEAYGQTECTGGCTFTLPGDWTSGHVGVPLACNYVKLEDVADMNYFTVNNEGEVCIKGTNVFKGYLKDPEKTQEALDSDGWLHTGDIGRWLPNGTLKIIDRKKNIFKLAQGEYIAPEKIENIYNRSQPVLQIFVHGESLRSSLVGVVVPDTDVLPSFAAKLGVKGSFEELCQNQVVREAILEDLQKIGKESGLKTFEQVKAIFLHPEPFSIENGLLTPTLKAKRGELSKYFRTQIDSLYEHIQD

Test [3] has as its target Serine/threonine-protein kinase 24 (Homo sapiens, UniProt Q9Y6E0).
The target in test [4] is Serine/threonine-protein kinase PLK1 (Homo sapiens, UniProt P53350).
A further test addresses Obg-like ATPase 1 (Homo sapiens, UniProt Q9NTK5).
For test [5], the target named is Mitogen-activated protein kinase 14 (Homo sapiens, UniProt Q16539).
The target in test [6] is Guanine nucleotide-binding protein G(i) subunit alpha-2 (Homo sapiens, UniProt P04899).
For test [7], the target named is Dual specificity protein kinase CLK2 (Homo sapiens, UniProt P49760).
Test [8] has as its target Protein kinase C theta type (Homo sapiens, UniProt Q04759).
Another test addresses Ephrin type-A receptor 7 (Homo sapiens, UniProt Q15375).
For test [9], the target named is Proto-oncogene tyrosine-protein kinase receptor Ret (Homo sapiens, UniProt P07949).
The target of test [10] is T2, Dual specificity protein kinase TTK (Homo sapiens, UniProt P33981).
T2 sequence (P33981 whole entry): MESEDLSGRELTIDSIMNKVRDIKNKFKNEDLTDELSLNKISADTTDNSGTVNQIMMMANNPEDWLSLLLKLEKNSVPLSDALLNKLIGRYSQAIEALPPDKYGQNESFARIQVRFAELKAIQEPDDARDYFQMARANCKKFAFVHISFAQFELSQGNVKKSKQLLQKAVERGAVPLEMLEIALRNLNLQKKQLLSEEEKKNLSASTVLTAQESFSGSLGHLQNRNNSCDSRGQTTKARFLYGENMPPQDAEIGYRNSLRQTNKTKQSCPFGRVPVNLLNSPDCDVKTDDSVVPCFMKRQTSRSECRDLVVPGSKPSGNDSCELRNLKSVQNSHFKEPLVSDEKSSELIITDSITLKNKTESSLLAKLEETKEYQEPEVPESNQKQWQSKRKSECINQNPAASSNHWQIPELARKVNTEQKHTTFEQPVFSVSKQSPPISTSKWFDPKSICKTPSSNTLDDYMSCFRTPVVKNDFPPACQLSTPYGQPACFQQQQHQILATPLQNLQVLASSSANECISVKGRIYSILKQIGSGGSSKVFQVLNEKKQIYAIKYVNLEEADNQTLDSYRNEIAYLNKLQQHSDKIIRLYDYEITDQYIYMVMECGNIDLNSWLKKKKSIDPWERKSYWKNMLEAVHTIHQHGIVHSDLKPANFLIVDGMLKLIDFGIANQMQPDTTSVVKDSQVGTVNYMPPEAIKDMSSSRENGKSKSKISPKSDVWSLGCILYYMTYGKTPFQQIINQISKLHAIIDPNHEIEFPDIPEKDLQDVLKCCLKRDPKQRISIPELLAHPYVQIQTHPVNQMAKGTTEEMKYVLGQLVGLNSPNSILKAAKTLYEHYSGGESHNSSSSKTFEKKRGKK

Another test deals with T3, UMP-CMP kinase (Homo sapiens, UniProt P30085).
T3 sequence (P30085 whole entry): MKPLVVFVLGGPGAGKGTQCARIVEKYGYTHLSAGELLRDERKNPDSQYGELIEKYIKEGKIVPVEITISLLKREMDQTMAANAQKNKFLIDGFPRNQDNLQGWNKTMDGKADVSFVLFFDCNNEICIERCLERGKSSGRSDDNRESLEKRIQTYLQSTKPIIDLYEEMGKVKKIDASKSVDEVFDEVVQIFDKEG

Test [11] has as its target Choline-phosphate cytidylyltransferase A (Homo sapiens, UniProt P49585).
In test [12] the target is Cell division cycle 7-related protein kinase (Homo sapiens, UniProt O00311).
Test [13] deals with G protein-coupled receptor kinase 6 (Homo sapiens, UniProt P43250).
Test [14] has as its target T4, Adenine phosphoribosyltransferase (Homo sapiens, UniProt P07741).
T4 sequence (P07741 whole entry): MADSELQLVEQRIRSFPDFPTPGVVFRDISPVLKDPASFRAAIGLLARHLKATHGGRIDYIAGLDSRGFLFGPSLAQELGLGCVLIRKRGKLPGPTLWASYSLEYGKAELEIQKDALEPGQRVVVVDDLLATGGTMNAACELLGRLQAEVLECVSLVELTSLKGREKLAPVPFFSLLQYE

In test [15] the target is Membrane-associated progesterone receptor component 1 (Homo sapiens, UniProt O00264).
The target of test [16] is Phosphatidylethanolamine-binding protein 1 (Homo sapiens, UniProt P30086).
Further: in the data inactive means no Kd found up to 30 µM.

Sequence of G protein-coupled receptor kinase 6 (P43250 whole entry): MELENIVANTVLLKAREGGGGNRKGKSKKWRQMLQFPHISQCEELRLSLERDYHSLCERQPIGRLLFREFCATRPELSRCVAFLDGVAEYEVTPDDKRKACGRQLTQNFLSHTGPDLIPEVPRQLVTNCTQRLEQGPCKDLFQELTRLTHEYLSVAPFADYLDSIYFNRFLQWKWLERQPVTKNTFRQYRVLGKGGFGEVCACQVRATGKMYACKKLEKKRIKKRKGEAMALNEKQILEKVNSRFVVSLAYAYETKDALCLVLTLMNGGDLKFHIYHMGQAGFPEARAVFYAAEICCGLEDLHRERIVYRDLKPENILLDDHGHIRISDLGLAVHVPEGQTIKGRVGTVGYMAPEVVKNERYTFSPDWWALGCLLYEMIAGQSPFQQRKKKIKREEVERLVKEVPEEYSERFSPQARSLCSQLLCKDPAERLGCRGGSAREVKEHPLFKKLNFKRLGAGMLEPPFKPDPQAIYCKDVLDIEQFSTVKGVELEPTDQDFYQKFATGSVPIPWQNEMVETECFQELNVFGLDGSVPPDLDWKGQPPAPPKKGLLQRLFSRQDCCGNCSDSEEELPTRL
Sequence of Ephrin type-A receptor 7 (Q15375 whole entry): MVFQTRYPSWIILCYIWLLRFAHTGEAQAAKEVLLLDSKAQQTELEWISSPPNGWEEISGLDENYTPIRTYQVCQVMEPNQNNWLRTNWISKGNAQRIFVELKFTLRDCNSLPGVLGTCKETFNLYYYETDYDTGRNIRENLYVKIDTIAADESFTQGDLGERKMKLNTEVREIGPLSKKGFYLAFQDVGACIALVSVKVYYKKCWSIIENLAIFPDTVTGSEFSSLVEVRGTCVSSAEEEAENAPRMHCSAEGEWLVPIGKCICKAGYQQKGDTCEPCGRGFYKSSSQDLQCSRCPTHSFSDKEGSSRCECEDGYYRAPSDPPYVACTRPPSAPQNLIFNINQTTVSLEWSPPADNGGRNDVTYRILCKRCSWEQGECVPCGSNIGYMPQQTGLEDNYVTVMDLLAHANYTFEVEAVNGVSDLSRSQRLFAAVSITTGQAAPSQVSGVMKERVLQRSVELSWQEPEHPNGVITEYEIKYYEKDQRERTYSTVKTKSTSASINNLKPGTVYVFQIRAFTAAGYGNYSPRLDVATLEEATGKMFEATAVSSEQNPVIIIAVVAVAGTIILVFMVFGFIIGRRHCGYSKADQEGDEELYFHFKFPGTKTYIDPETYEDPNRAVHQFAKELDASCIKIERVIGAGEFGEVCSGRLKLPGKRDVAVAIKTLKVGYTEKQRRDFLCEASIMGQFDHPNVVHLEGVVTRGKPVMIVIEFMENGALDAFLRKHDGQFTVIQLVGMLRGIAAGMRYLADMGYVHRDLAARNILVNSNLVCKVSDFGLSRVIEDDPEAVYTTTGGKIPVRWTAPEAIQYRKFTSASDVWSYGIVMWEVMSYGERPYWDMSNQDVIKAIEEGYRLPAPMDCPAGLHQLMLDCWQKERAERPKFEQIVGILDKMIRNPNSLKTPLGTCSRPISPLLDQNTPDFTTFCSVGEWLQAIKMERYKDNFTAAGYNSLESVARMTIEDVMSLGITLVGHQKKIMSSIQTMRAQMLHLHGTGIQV
Sequence of Obg-like ATPase 1 (Q9NTK5 whole entry, looked up): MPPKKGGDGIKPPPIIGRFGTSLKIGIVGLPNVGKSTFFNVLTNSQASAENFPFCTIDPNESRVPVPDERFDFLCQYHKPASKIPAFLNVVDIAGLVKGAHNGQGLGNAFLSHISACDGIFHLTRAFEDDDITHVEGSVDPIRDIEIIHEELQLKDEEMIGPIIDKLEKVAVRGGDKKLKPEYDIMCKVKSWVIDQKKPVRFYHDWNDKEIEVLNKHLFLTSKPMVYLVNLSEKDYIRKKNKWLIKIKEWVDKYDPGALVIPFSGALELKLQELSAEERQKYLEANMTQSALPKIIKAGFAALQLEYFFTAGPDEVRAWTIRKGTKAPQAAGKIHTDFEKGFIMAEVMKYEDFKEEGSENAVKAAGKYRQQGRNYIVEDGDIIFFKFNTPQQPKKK
Sequence of Protein kinase C theta type (Q04759 whole entry): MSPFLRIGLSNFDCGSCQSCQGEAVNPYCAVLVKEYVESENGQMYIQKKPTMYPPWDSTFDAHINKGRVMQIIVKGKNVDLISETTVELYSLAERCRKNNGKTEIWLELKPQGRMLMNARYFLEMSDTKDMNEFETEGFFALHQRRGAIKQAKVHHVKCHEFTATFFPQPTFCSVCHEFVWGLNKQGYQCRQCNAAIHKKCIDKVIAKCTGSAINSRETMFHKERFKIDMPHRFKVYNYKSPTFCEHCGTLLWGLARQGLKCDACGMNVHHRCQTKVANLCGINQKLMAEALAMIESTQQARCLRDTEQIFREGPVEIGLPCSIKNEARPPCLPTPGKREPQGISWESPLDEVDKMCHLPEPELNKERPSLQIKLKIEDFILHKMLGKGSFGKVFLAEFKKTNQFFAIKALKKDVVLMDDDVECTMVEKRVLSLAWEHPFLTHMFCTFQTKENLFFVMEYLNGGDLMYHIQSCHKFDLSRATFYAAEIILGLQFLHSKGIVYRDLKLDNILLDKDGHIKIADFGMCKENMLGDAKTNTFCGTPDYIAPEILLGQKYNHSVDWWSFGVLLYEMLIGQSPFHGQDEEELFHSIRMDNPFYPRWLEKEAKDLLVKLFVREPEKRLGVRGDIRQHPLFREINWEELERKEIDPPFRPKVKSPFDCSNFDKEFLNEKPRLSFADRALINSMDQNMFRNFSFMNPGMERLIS
Sequence of Proto-oncogene tyrosine-protein kinase receptor Ret (P07949 whole entry): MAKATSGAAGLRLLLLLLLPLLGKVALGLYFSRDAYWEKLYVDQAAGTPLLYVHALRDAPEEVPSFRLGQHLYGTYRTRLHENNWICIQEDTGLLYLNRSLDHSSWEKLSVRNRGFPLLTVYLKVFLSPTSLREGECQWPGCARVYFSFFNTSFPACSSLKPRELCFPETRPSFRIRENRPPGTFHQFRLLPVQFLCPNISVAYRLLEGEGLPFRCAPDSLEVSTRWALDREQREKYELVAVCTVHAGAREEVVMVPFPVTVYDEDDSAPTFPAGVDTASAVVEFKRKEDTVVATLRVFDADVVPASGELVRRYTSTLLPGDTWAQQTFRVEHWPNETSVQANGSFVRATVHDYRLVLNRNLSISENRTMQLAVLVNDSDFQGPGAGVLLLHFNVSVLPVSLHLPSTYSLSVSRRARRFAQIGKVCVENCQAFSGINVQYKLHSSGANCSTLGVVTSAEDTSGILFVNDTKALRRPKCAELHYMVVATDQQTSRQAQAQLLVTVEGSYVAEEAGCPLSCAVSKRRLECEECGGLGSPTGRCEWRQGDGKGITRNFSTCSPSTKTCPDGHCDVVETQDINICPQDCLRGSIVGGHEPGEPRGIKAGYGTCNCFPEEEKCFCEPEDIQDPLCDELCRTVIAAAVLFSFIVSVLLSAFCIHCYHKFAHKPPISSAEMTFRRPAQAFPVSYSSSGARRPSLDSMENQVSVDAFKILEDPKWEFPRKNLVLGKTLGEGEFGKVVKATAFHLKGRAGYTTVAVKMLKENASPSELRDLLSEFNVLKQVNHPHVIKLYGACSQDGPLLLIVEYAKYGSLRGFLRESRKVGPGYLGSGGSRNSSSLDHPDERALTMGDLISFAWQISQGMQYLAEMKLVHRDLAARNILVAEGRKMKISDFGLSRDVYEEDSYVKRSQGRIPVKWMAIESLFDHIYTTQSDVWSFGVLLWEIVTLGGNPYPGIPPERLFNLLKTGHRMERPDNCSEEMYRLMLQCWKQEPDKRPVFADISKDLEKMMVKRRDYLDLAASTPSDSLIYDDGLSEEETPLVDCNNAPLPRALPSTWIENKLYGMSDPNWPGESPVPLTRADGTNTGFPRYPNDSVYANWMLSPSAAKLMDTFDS
Sequence of Cell division cycle 7-related protein kinase (O00311 whole entry): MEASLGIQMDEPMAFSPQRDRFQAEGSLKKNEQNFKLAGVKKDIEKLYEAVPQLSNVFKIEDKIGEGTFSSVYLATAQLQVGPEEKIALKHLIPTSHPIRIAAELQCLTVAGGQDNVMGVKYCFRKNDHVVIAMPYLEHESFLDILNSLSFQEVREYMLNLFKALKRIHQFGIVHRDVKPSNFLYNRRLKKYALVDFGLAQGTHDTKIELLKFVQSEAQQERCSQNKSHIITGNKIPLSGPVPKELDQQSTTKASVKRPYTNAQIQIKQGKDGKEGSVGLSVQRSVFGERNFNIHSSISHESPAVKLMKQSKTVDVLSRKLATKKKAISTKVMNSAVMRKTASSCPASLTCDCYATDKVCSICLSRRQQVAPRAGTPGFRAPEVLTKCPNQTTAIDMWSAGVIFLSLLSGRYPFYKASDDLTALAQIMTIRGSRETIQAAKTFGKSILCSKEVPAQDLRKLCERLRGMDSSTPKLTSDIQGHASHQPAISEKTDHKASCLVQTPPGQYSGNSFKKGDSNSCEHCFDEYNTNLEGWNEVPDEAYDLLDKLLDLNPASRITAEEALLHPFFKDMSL
Sequence of Serine/threonine-protein kinase PLK1 (P53350 whole entry): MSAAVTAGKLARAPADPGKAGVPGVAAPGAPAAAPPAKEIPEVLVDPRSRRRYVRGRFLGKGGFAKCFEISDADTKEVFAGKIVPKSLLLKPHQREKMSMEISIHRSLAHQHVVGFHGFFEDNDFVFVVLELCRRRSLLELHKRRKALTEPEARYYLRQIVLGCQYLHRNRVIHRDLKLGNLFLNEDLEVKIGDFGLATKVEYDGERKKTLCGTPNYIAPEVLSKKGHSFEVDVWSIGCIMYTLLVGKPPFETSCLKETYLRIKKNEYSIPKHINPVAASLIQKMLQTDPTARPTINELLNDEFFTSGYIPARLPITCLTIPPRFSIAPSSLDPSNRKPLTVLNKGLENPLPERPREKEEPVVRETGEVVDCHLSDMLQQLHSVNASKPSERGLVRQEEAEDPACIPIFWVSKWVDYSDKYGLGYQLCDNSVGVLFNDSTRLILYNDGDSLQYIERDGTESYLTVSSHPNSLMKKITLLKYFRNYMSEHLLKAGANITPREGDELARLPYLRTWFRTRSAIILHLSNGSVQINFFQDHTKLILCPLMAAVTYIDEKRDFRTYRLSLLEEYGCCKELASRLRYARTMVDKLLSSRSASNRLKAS

With `Cc1ccc(S(=O)(=O)Nc2nc3ccccc3nc2Nc2ccc3nsnc3c2)cc1`, the Kd (in test [1]; in test [2]; in test [3]; in test [4]; at Obg-like ATPase 1; in test [5]) was > 30 µM (inactive) throughout. In addition, the Kd (in [6]; in [7]; in test [8]; on Ephrin type-A receptor 7; in [9]; in test [10]) was > 30 µM (inactive) each time.
`CN1CCC(CNc2ccc3ncc(-c4cccc(OC(F)(F)F)c4)n3n2)CC1` [SGI-1776]: the Kd (at UMP-CMP kinase; in test [11]; in test [1]; in [2]; in [3]; in test [4]) was > 30 µM (inactive) each time. In addition, the Kd (on Obg-like ATPase 1; in test [5]; in [6]; in test [7]; in test [12]; in test [8]) was > 30 µM (inactive) in each case. Further, the Kd in [13] is > 30 µM (inactive); at Ephrin type-A receptor 7, > 30 µM (inactive); in test [9] it was 3.22 µM (active); in test [14], > 30 µM (inactive); in test [10] it was > 30 µM (inactive).
As for `Cc1cc([C@@H](C)Nc2ccccc2C(=O)O)c2nc(N3CCOCC3)cc(=O)n2c1` [AZD-6482], the Kd (at UMP-CMP kinase; in test [15]; in test [11]; in test [1]; in test [2]; in [3]) was > 30 µM (inactive) in each case. The Kd (in test [4]; at Obg-like ATPase 1; in test [5]; in test [6]; in test [7]; in test [8]) was > 30 µM (inactive) in each case. Moreover, the Kd (in test [13]; at Ephrin type-A receptor 7; in test [9]; in test [16]; in test [14]; in [10]) was > 30 µM (inactive) throughout.
Regarding `CCN1CCN(Cc2ccc(-c3cc4c(N[C@H](C)c5ccccc5)ncnc4[nH]3)cc2)CC1` [AEE-788], the Kd (in [11]; in test [2]; in [3]; in test [4]; at Obg-like ATPase 1; in test [5]) was > 30 µM (inactive) in each case. Besides, the Kd (in test [6]; in test [7]; in test [12]; in test [8]; in test [13]; at Ephrin type-A receptor 7) was > 30 µM (inactive) in each case. Besides, the Kd in test [16], in [14] and in test [10] was > 30 µM (inactive) in each case.
Consider `Cc1cc(-c2cc(O)ccc2Cl)cc2nnc(Nc3ccc(OCCN4CCCC4)cc3)nc12`, for which the Kd (on UMP-CMP kinase; in test [15]; in test [1]; in test [2]; in test [3]; in test [4]) was > 30 µM (inactive) in each case. Further, the Kd (on Obg-like ATPase 1; in test [5]; in [7]; in test [12]; in test [8]; at Ephrin type-A receptor 7) was > 30 µM (inactive) throughout. Besides, the Kd in test [9] was 0.001 µM (active); in test [14], > 30 µM (inactive); in [10] it was > 30 µM (inactive).
